Experimental data taken from US20160367505A1, “PROTOTYPICAL ANALGESIC PROFILE OF N-STEARYL DOPAMINE (NS-DA)” (priority 2015, published 2016).

Experiments:
[1] = tested on: Paclitaxel induced pain sensitization in the formalin test of pain; experiment: Paclitaxel induced neuropathic sensitization (PINS) in the formalin test of pain; assay type: in vivo, mice; settings: for PINS diminished: per os in Tween-80 (5%) suspension, vs Tween-80 (5%) controls
Description: NS-DA was synthesized and studied pharmacologically in the early ninety's.

[2] = tested on: locomotion; settings: mice and rats; studies of the early ninety's; cited from earlier work
[3] = tested on: brain dopamine turnover; settings: mice and rats; studies of the early ninety's; cited from earlier work

Compound | analgesic effect (decrease) ([1]; 0-5 mn acute pain phase, females) | analgesic effect ([1]; 0-5 mn acute pain phase, male mice) | suppression of PINS ([1]; 40 mg/kg ip in Cremophor.EL, 35-40 mn central sensitization phase, 1 hour after administration, vs Cremophor.EL control) | analgesic effect (decrease) ([1]; 35-40 mn sensitization phase, males and females) | analgesic effect (decrease) ([1]; 55-60 mn sensitization phase, female mice) | analgesic effect (decrease) ([1]; 55-60 mn sensitization phase, males) | effect on PINS ([1]; NS-DA 10 mg/kg ip alone, 35-40 mn central sensitization phase) | analgesic activity against PINS ([1]; formalin test, mice, general statement) | PINS diminished ([1]; 1 hour after administration) | PINS diminished ([1]; 2 hours after administration) | PINS diminished ([1]; 4 hours after administration) | effect on locomotion [2] | effect on brain dopamine turnover [3] | decrease of PINS ([1]; morphine 3 mg/kg sc alone, 35-40 mn central sensitization phase)
CCCCCCCCCCCCCCCCCC(=O)NCCc1ccc(O)c(O)c1 [NS-DA] | 65% | not significant | 94.8% | about 95% | 95% | 58% | inactive | high analgesic activity | 39% | 62% | 76% | hypomotility | decrease of the brain dopamine turnover | –
CN1CC[C@]23c4c5ccc(O)c4O[C@H]2[C@@H](O)C=C[C@H]3[C@H]1C5 [morphine, reference compound] | – | – | – | – | – | – | – | – | – | – | – | – | – | 37%
